The text below walks through data of patent US20190389843A1, “PYRROLE mTORC INHIBITORS AND USES THEREOF” (Navitor Pharmaceuticals, Inc., priority 2016, published 2019).

In assay [1] the test system is pAKT in MCF7 (measure of mTORC2 activity). As to the kind of experiment: AlphaLISA Ultra pAKT assay. It counts as cell-based. The note with it: Homo sapiens, MCF7, 2 h, MCF-7 cells, 2 hours compound incubation. Put shortly:
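MCF7 cells, 16,000-20,000 per well, treated with compound for 2 h at 0.5% final DMSO, then lysed. Phospho-AKT, as a readout of mTORC2 activity, measured by AlphaLISA Ultra with acceptor beads and then donor beads, 2 h each.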

Assay [2] deals with pS6K1 in MCF7 (measure of mTORC1 activity). As to the kind of experiment: AlphaLISA Ultra pS6K1 assay. It counts as cell-based. As to conditions: Homo sapiens, MCF7, 2 h, MCF-7 cells, 2 hours compound incubation. Put shortly: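 MCF7 cells, refreshed medium 2 h, treated with compound 2 h at 0.5% DMSO final, then lysed. Phospho-S6K1 in lysates detected by AlphaLISA Ultra (acceptor beads 2 h, donor beads 2 h), read as Alpha signal on a multimode reader.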

Structures can show the parent of a compound that is named as a salt.

Turning to `Cc1c(CN2CCN(c3ccccc3Cl)CC2)cc(C(=O)N2CCn3c(nc4ccccc43)C2)n1C` [Example I-91, (4-((4-(2-chlorophenyl)piperazin-1-yl)methyl)-1,5-dimethyl-1H-pyrrol-2-yl)(3,4-dihydrobenzo[4,5]imidazo[1,2-a]pyrazin-2(1H)-yl)methanone], the IC50 was more than 5000 nM in assay [1] and 10 to 1000 nM in assay [2].

As to `Cn1cc(CN2CCC(Nc3ccccc3Cl)CC2)cc1C(=O)N1CCN(c2ccc(F)cc2)CC1` [Example I-130], the IC50 in assay [1] is more than 10000 nM; in assay [2] it was 1000 to 3000 nM.

With `Cc1c(CN2CCN(c3ncccc3Cl)CC2)cc(C(=O)N2CCN(c3cccc(Cl)c3)CC2)n1C` [Example I-98, 1-({5-[4-(3-Chlorophenyl)piperazine-1-carbonyl]-1,2-dimethyl-1H-pyrrol-3-yl}methyl)-4-(3-chloropyridin-2-yl)piperazine], the IC50 in assay [1] is more than 3000 nM; in assay [2], 10 to 1000 nM.

Regarding `Cc1c(CN2CCN(c3ccccc3Cl)CC2)cc(C(=O)N2CCN(c3cc(F)cc(F)c3)CC2)n1C` [Example I-96, (4-((4-(2-chlorophenyl)piperazin-1-yl)methyl)-1,5-dimethyl-1H-pyrrol-2-yl)(4-(3,5-difluorophenyl)piperazin-1-yl)methanone], the IC50 in assay [1] is more than 3000 nM; in assay [2] it was 10 to 1000 nM.

With `Cc1c(CN2CCN(c3ccccc3Cl)CC2)cc(C(=O)N2CCN(c3cc(F)cc(F)c3)C[C@@H]2C)n1C` [Example I-93, (S)-(4-((4-(2-chlorophenyl)piperazin-1-yl)methyl)-1,5-dimethyl-1H-pyrrol-2-yl)(4-(3,5-difluorophenyl)-2-methylpiperazin-1-yl)methanone], the IC50 in assay [1] was more than 5000 nM; in assay [2] it was 10 to 1000 nM.

`Cc1c(CN2CCN(c3ccccc3C#N)CC2)cc(C(=O)N2CCN(c3ccc(F)cc3)CC2)n1C` [Example I-55]: the results for the IC50 in assay [1] and in assay [2] were more than 1000 nM and 10 to 1000 nM, respectively.

For the molecule `COCCn1cc(CN2CCN(c3ccccc3C#N)CC2)cc1C(=O)N1CCN(c2ccccc2C#N)CC1` [Example I-151], the IC50 is more than 10000 nM in assay [1] and 1000 to 3000 nM in assay [2].

With `Cc1c(CN2CCN(c3ccccc3C#N)CC2)cc(C(=O)N2CCN(c3ccccn3)CC2)n1C` [Example I-60], the IC50 in assay [1] was more than 3000 nM; in assay [2], 10 to 1000 nM.

`Cc1c(C(C)N2CCN(c3ccccc3Cl)CC2)cc(C(=O)N2CCN(c3ccc(F)cc3)C[C@@H]2C)n1C` (stereo partly drawn) [Example I-46, (4-(1-(4-(2-Chlorophenyl)piperazin-1-yl)ethyl)-1,5-dimethyl-1H-pyrrol-2-yl)((S)-4-(4-fluorophenyl)-2-methylpiperazin-1-yl)methanone]: the IC50 is more than 10000 nM in assay [1] and 1000 to 3000 nM in assay [2].

As to `Cc1c(CN2C3CCC2CN(c2ccccc2C#N)C3)cc(C(=O)N2CCN(c3ccccn3)CC2)n1C` [Example I-52, 2-(8-((1,2-dimethyl-5-(4-(pyridin-2-yl)piperazine-1-carbonyl)-1H-pyrrol-3-yl)methyl)-3,8-diazabicyclo[3.2.1]octan-3-yl)benzonitrile], the IC50 in assay [1] was more than 10000 nM; in assay [2], 10 to 1000 nM.

For `Cc1c(CN2CCN(c3ccccc3C#N)CC2)cc(C(=O)N2CCN(c3ccccc3C#N)C[C@@H]2C)n1C` [Example I-67], the IC50 is more than 10000 nM in assay [1] and 10 to 1000 nM in assay [2].

Regarding `C[C@H]1CN(c2ccccc2C#N)CCN1C(=O)c1cc(CN2CCN(c3ccccc3Cl)CC2)cn1C` [Example I-121, (S)-2-(4-(4-((4-(2-chlorophenyl)piperazin-1-yl)methyl)-1-methyl-1H-pyrrole-2-carbonyl)-3-methylpiperazin-1-yl)benzonitrile], the IC50 was more than 1000 nM in assay [1] and 10 to 1000 nM in assay [2].

As for `Cc1c(CN2CCN(c3ccccc3C#N)CC2)cc(C(=O)N2CCN(c3ccccc3)CC2)n1C` [Example I-54], the IC50 in assay [1] is more than 1000 nM; in assay [2], 10 to 1000 nM.

As for `Cc1nc(C#N)c(N2CCN(C(=O)c3cc(CN4CCN(c5ccccc5C#N)CC4)c(C)n3C)CC2)o1` [Example I-22], the results for the IC50 in assay [1] and in assay [2] were more than 10000 nM and 1000 to 3000 nM, respectively.

For the molecule `Cc1c(CN2CCN(c3ccccc3Cl)CC2)cc(C(=O)N2CCN(c3cccc(Cl)c3)CC2)n1C` [Example I-118, (4-(3-Chlorophenyl)piperazin-1-yl)(4-((4-(2-chlorophenyl)piperazin-1-yl)methyl)-1,5-dimethyl-1H-pyrrol-2-yl)methanone], the values for the IC50 in assay [1] and in assay [2] were more than 3000 nM and 10 to 1000 nM, respectively.

Take `Cn1cc(CN2CCC3(CCN(c4ccccc4Cl)C3)C2)cc1C(=O)N1CCN(c2ccc(F)cc2)CC1` (centres unmarked) [Example I-128]: the IC50 in assay [1] was more than 10000 nM; in assay [2], 1000 to 3000 nM.

As for `Cc1c(CN2CCCN(c3ccccc3Cl)CC2)cc(C(=O)N2CCN(c3cccc(C#N)c3)C[C@@H]2C)n1C` [Example I-41, (S)-3-(4-(4-((4-(2-chlorophenyl)-1,4-diazepan-1-yl)methyl)-1,5-dimethyl-1H-pyrrole-2-carbonyl)-3-methylpiperazin-1-yl)benzonitrile], the IC50 in assay [1] was more than 10000 nM; in assay [2] it was 1000 to 3000 nM.

On to `Cc1c(CN2CCN(c3ncccc3Cl)CC2)cc(C(=O)N2CCN(c3ccc(F)c(F)c3)CC2)n1C` [Example I-84, (4-((4-(3-chloropyridin-2-yl)piperazin-1-yl)methyl)-1,5-dimethyl-1H-pyrrol-2-yl)(4-(3,4-difluorophenyl)piperazin-1-yl)methanone], for which the IC50 was more than 3000 nM in assay [1] and 10 to 1000 nM in assay [2].

For the molecule `C[C@H]1CN(c2cccc(C#N)c2)CCN1C(=O)c1cc(CN2CCN(c3ccccc3C#N)CC2)cn1C` [Example I-57], the figures for the IC50 in assay [1] and in assay [2] were more than 3000 nM and 10 to 1000 nM, respectively.

For `Cc1c(CN2CCN(c3ccccc3Cl)CC2)cc(C(=O)N2CCN(c3cc(F)c(F)cc3C#N)CC2)n1C` [Example I-1], the figures for the IC50 in assay [1] and in assay [2] were more than 1000 nM and 10 to 1000 nM, respectively.

Consider `Cn1cc(CN2CCN(c3ccccc3Cl)CC2)cc1C(=O)N1CCN(c2cc(F)c(F)c(F)c2)CC1` [Example I-132, (4-((4-(2-Chlorophenyl)piperazin-1-yl)methyl)-1-methyl-1H-pyrrol-2-yl)(4-(3,4,5-trifluorophenyl)piperazin-1-yl)methanone trifluoroacetate salt], for which the IC50 was more than 10000 nM in assay [1] and 3000 to 10000 nM in assay [2].

On to `Cn1cc(CN2CCN(c3ccccc3Cl)CC2)cc1C(=O)N1CCN(c2ccccc2)CC1` [Example I-144], for which the IC50 in assay [1] is more than 3000 nM; in assay [2], 1000 to 3000 nM.

Take `Cc1c(CN2CCN(c3ncccc3Cl)CC2)cc(C(=O)N2CCN(c3cccc(C#N)c3)CC2)n1C` [Example I-79, 3-(4-(4-((4-(3-Chloropyridin-2-yl)piperazin-1-yl)methyl)-1,5-dimethyl-1H-pyrrole-2-carbonyl)piperazin-1-yl)benzonitrile]: the figures for the half-maximal inhibitory concentration (IC50) in assay [1] and in assay [2] were more than 3000 nM and 10 to 1000 nM, respectively.

Consider `Cc1c(CN2CCN(c3ccccc3C#N)CC2)cc(C(=O)N2CCN(c3nnccc3C#N)CC2)n1C` [Example I-15], for which the values for the IC50 in assay [1] and in assay [2] were more than 10000 nM and 1000 to 3000 nM, respectively.

As to `Cc1c(CN2CCN(c3ccccc3Cl)CC2)cc(C(=O)N2CCN(c3ccc4cc[nH]c4c3)C[C@@H]2C)n1C` [Example I-34, (S)-(4-(1H-indol-6-yl)-2-methylpiperazin-1-yl)(4-((4-(2-chlorophenyl)piperazin-1-yl)methyl)-1,5-dimethyl-1H-pyrrol-2-yl)methanone trifluoroacetate salt], the IC50 was more than 10000 nM in assay [1] and 1000 to 3000 nM in assay [2].
